Consider 16 molecules from patent EP1705169A2, “Triphenylalkene derivatives and their use as selective estrogen receptor modulators” (priority 1999, dated 2001).

Structures are written as SMILES. Read-outs that look alike come from different tables or passages of the source.

One series has as its system MCF-7 cells. Put plainly: cells. To be noted: for inhibition at 1 µM / Emax / cytotoxicity at 10 µM: Homo sapiens, MCF7, 96 h; for inhibition at 1 µM: read-out: Antagonism at 1 µM (% of full antagonism); for Emax: read-out: Maximal Agonism (% of E2); for Kill of MCF-7 cells (in words): highest investigated concentration (10 µM). As for the experimental part:
For experiments involving hormone or anti-hormone treatment, the cells in exponential growth phase were precultivated in the absence of estradiol for one day. […] After the incubation period the medium was removed. The exposure to study drugs was started immediately by adding fresh medium with 5 % stripped serum. Half of the cells were grown with estradiol, half without estradiol. Study compounds (dissolved in ethanol in 0.01 M concentration and diluted with the growth medium as appropriate) were added. The final concentrations of the compounds were 1,10, and 100 nM, and 1 and 10 µM. The cells were incubated for four days.
This method allows evaluation of estrogenicity based on the ability of the compounds to stimulate the growth of the estrogen-dependent cells in the absence of estradiol. Estrogenicity was estimated by comparing the maximal growth stimulus (at any concentration) of study compound as per cent from growth stimulus by estradiol (100 % stimulus). […] At high concentrations molecules may also show toxicity. Toxicity was estimated as the fraction of dead cells (i.e. 100 % means that all cells have died during the exposure).

In a further series the test system is immature female rats. Put plainly: 3 day uterotropic assay in immature female rats (given alone and with estradiol). In kind it is in vivo. To be noted: for Estrogen antagonism (% inhibition of estradiol) Given with estradiol / Uterotropic effect (% of estradiol) Given without estradiol: 3 days, immature female rats. As for the experimental part:
The values are given at two dose levels, low i.e. 3―5 mg/kg and high i.e. 10―50 mg/kg. Estrogenic activity can be estimated also after a 4 weeks' treatment of ovariectomized rats based on the uterine size.

Series [1] has as its system ovariectomized (OVX) rats. Put plainly: Serum cholesterol level in ovariectomized (OVX) rats after 4 weeks dosing. In kind it is in vivo, rat. An excerpt:
Compounds were given p.o. to female rats for 4 or 5 weeks daily. At the end a blood sample was taken. Serum was separated by centrifugation and frozen until analyzed for total amount of cholesterol. Bone samples were taken from vertebra and tibia. Physical strength of the bones was studied as described by Peng et al, 1994. The assessments of the bone included: • Ash weight of tibial epiphyses • Epiphyses of one tibia was carefully prepared and burned. Samples were burned to remove water and organic material. Ash weight relates to the mineral content of the bone. In addition, bone samples were taken to study the histomorphometry. In some cases the bone formation was studied by injecting tetracycline (50 mg/kg i.p. 10 days before autopsy) and calcein (20 mg/kg i.p. 3 days before autopsy). The method is based on permanent binding of tetracycline into growing bone and its detection by fluorescence (Peng et al, 1994).

Where [2] appears, read: read-out: Maximal Cell Kill (% fraction of dead cells), With estradiol (E2), toxicity at 10 µmol/l, 100 = all cells dead.
The mark [3] stands for this setting: read-out: Maximal Cell Kill (% fraction of dead cells), Without estradiol (E2), toxicity at 10 µmol/l, 100 = all cells dead.
[4] abbreviates: summary statement referring to Table 2.

As to `CN(C)CCOc1ccc(/C(=C(/CCCl)c2ccccc2)c2ccc(F)cc2)cc1` [No. 1, (E)-(2-{4-[4-Chloro-1-(4-fluorophenyl)-2-phenylbut-1-enyl]phenoxy}ethyl)-dimethylamine], in the series with MCF-7 cells, the inhibition at 1 µM turned out to be 8% and the Emax worked out at 1%. For the same molecule, the cytotoxicity at 10 µM in the series on MCF-7 cells (setting [2]) turned out to be 100%. Also, in the series with MCF-7 cells (setting [3]), the cytotoxicity at 10 µM turned out to be 100%. Moreover, in the series with MCF-7 cells (Table 2), the “Estrogenic action in vitro (in words)” value is listed as “no estrogenic action in vitro” and the “Kill of MCF-7 cells (in words)” value is listed as “kill MCF-7 cells (human breast cancer cells) effectively”. Further, in the series with MCF-7 cells (setting [4]), the “Hormonal activity (in words)” value is on record as “weak hormonal activity”. For the same molecule, in the series with immature female rats (Table 3), the “Estrogenic action in vivo (in words)” value is on record as “weak estrogen in vivo”. Moreover, in the series with immature female rats (dose 3–5 mg/kg), the “Estrogen antagonism (% inhibition of estradiol) Given with estradiol” value was 26 % inhibition of estradiol and the “Uterotropic effect (% of estradiol) Given without estradiol” value is 42 % of estradiol. In the series on immature female rats (dose 10–50 mg/kg), the “Estrogen antagonism (% inhibition of estradiol) Given with estradiol” value is given as 31 % inhibition of estradiol and the “Uterotropic effect (% of estradiol) Given without estradiol” value is 74 % of estradiol.

On to `CN(C)CCOc1cccc(/C(=C(/CCCl)c2ccccc2)c2ccccc2)c1` [No. 33, (Z)-{2-[3-(4-Chloro-1,2-diphenylbut-1-enyl)phenoxy]ethyl}dimethylamine], for which, in the series on MCF-7 cells, the inhibition at 1 µM worked out at 58%. In addition, the cytotoxicity at 10 µM with MCF-7 cells (setting [2]) stood at 80%; with MCF-7 cells (setting [3]) it was 0%. Besides, the “Cytotoxic action (in words)” value with MCF-7 cells (setting [4]) is recorded as “weak”. For the same molecule, the “Effect on cholesterol (in words)” value in series [1] (summary statement referring to Table 4) was “decrease cholesterol”.

As for `CN(C)CCOc1ccc(/C(=C(\CCCl)c2ccc(Cl)cc2)c2ccc(Cl)cc2)cc1` [No. 5, (Z)-(2-{4-[4-Chloro-1,2-bis(4-chlorophenyl)but-1-enyl]phenoxy}ethyl)-dimethylamine], in the series on MCF-7 cells, the inhibition at 1 µM worked out at 31% and the Emax was determined as 11%. Further, the cytotoxicity at 10 µM in the series with MCF-7 cells (setting [2]) was 100%. Besides, the cytotoxicity at 10 µM in the series with MCF-7 cells (setting [3]) is 100%.

With `COc1ccc(/C(=C(\CCCl)c2ccc(Cl)cc2)c2ccc(OCCN(C)C)cc2)cc1` [No. 26, (Z)-(2-{4-[4-Chloro-2-(4-chlorophenyl)-1-(4-methoxyphenyl)but-1-enyl]phenoxy}-ethyl)dimethylamine], in the series on MCF-7 cells, the inhibition at 1 µM worked out at 11% and the Emax came out at 0%. The cytotoxicity at 10 µM in the series on MCF-7 cells (setting [2]) stood at 98%. The cytotoxicity at 10 µM with MCF-7 cells (setting [3]) amounted to 97%. In addition, the “Kill of MCF-7 cells (in words)” value in the series with MCF-7 cells (Table 2) is recorded as “kill MCF-7 cells (human breast cancer cells) effectively”. For the same molecule, the “Hormonal activity (in words)” value in the series with MCF-7 cells (setting [4]) was “weak hormonal activity”.

Consider `CCCCN(C)C(=O)CCCCCCCCCC[C@@H]1Cc2cc(O)ccc2[C@H]2CC[C@]3(C)[C@@H](O)CC[C@H]3[C@H]12` [ICI 164,384, reference compound], for which, in the series with MCF-7 cells, the inhibition at 1 µM was determined as 100% and the Emax is 9%. In addition, in the series on MCF-7 cells (read-out: Maximal Cell Kill (% fraction of dead cells)), the cytotoxicity at 10 µM worked out at 100%.

Regarding `CC/C(=C(\c1ccccc1)c1ccc(OCCN(C)C)cc1)c1ccccc1` [Tamoxifen, reference compound], in the series with MCF-7 cells, the inhibition at 1 µM amounted to 43% and the Emax is 31%. In addition, the cytotoxicity at 10 µM with MCF-7 cells (setting [2]) amounted to 100%. The cytotoxicity at 10 µM in the series on MCF-7 cells (setting [3]) came to 100%. In the series on immature female rats (dose 3–5 mg/kg), the “Estrogen antagonism (% inhibition of estradiol) Given with estradiol” value was 51 % inhibition of estradiol and the “Uterotropic effect (% of estradiol) Given without estradiol” value is on record as 44 % of estradiol. Also, in the series on immature female rats (dose 10–50 mg/kg), the “Estrogen antagonism (% inhibition of estradiol) Given with estradiol” value is 58 % inhibition of estradiol and the “Uterotropic effect (% of estradiol) Given without estradiol” value was 51 % of estradiol.

As to `CN(C)CCOc1ccc(/C(=C(/CCCl)c2ccccc2)c2ccccc2)cc1` [Toremifene, 4-chloro-1,2-diphenyl-1-[4-[2-(N,N-dimethylamino)ethoxy]phenyl]-1-butene, Z-isomer, reference compound], in the series on MCF-7 cells, the inhibition at 1 µM was 44% and the Emax stood at 37%. Moreover, the cytotoxicity at 10 µM in the series on MCF-7 cells (setting [2]) turned out to be 100%. In addition, the cytotoxicity at 10 µM in the series on MCF-7 cells (setting [3]) was determined as 100%. For the same molecule, in the series on immature female rats (dose 3–5 mg/kg), the “Estrogen antagonism (% inhibition of estradiol) Given with estradiol” value is on record as 45 % inhibition of estradiol and the “Uterotropic effect (% of estradiol) Given without estradiol” value is 26 % of estradiol. In the series on immature female rats (dose 10–50 mg/kg), the “Estrogen antagonism (% inhibition of estradiol) Given with estradiol” value is recorded as 58 % inhibition of estradiol and the “Uterotropic effect (% of estradiol) Given without estradiol” value is given as 44 % of estradiol.

In the case of `OCCOc1ccc(/C(=C(/CCCl)c2ccccc2)c2ccccc2)cc1` [FC-1271a, 2-[4-(4-chloro-1,2-diphenyl-but-1-enyl)phenoxy]ethanol, reference compound], in the series with MCF-7 cells, the inhibition at 1 µM amounted to 21% and the Emax worked out at 23%. Moreover, the cytotoxicity at 10 µM in the series with MCF-7 cells (setting [2]) is 80%. Moreover, in the series with MCF-7 cells (setting [3]), the cytotoxicity at 10 µM was 50%.

Regarding `CN(C)CCOc1ccc(/C(=C(\CCCl)c2ccc(Cl)cc2)c2ccccc2)cc1` [No. 24, (E)-(2-{4-[4-Chloro-2-(4-chlorophenyl)-1-phenylbut-1-enyl]phenoxy}ethyl)-dimethylamine], in the series with MCF-7 cells, the inhibition at 1 µM is 4%. For the same molecule, in the series with MCF-7 cells, the Emax turned out to be 46%. Besides, the cytotoxicity at 10 µM was found to be 98% with MCF-7 cells (setting [2]) and 89% in the series on MCF-7 cells (setting [3]).

Consider `OCCOc1ccc(/C(=C(\CCCl)c2ccc(O)cc2)c2ccccc2)cc1` [No. 43, (E)-4-{1-(2-Chloroethyl)-2-[4-(2-hydroxyethoxy)phenyl]-2-phenylvinyl}phenol], for which, in the series on MCF-7 cells, the inhibition at 1 µM was 6% and the Emax came out at 78%. In addition, the cytotoxicity at 10 µM in the series with MCF-7 cells (setting [2]) is 22%. For the same molecule, the cytotoxicity at 10 µM in the series with MCF-7 cells (setting [3]) is 80%.

Turning to `OCCCOc1ccc(/C(=C(/CCCl)c2ccccc2)c2ccccc2)cc1` [No. 35, (Z)-3-[4-(4-Chloro-1,2-diphenylbut-1-enyl)phenoxy]propan-1-ol], in the series on MCF-7 cells, the inhibition at 1 µM is 14%. Also, the cytotoxicity at 10 µM with MCF-7 cells (setting [2]) and with MCF-7 cells (setting [3]) was 50% in each case. Moreover, the “Estrogen antagonism (% inhibition of estradiol) Given with estradiol” value was 35 % inhibition of estradiol in the series on immature female rats (dose 3–5 mg/kg) and 32 % inhibition of estradiol in the series with immature female rats (dose 10–50 mg/kg). For the same molecule, the “Uterotropic effect (% of estradiol) Given without estradiol” value is 43 % of estradiol with immature female rats (dose 3–5 mg/kg) and 66 % of estradiol in the series with immature female rats (dose 10–50 mg/kg).

On to `OCCOc1ccc(/C(=C(/CCCl)c2ccccc2)c2ccc(Cl)cc2)cc1` [No. 17, (E)-2-{4-[4-Chloro-2-phenyl-1-(4-chlorophenyl)but-1-enyl]phenoxy} ethanol], for which, in the series on MCF-7 cells, the inhibition at 1 µM came to 17%. Further, in the series with MCF-7 cells, the Emax is 0%. The cytotoxicity at 10 µM in the series on MCF-7 cells (setting [2]) was 38%; in the series on MCF-7 cells (setting [3]) it was 44%.

As for `CN(C)CCOc1ccc(/C(=C(/CCCl)c2ccc(Cl)cc2)c2ccc(Cl)cc2)cc1` [No. 4, (E)-(2-{4-[4-Chloro-1,2-bis(4-chlorophenyl)but-1-enyl]phenoxy}ethyl)-dimethylamine], the inhibition at 1 µM with MCF-7 cells worked out at 10%. Further, in the series with MCF-7 cells, the Emax stood at 10%. Moreover, the cytotoxicity at 10 µM in the series with MCF-7 cells (setting [2]) amounted to 100%; with MCF-7 cells (setting [3]) it was 90%.

As to `CN(C)CCOc1ccc(/C(=C(/CCCl)c2ccc(Cl)cc2)c2ccccc2)cc1` [No. 23, (Z)-(2-{4-[4-Chloro-2-(4-chlorophenyl)-1-phenylbut-1-enyl]phenoxy}ethyl)-dimethylamine], in the series with MCF-7 cells, the inhibition at 1 µM came to 5% and the Emax came out at 14%. Moreover, the cytotoxicity at 10 µM in the series on MCF-7 cells (setting [2]) was determined as 93%. In the series on MCF-7 cells (setting [3]), the cytotoxicity at 10 µM came out at 89%.

`C[C@]12CC[C@@H]3c4ccc(O)cc4CC[C@H]3[C@@H]1CC[C@@H]2O` [estradiol, reference compound]: the “Cholesterol level (mmol/1) in serum” value in series [1] (OVX rat, 3 µg/kg, 4 weeks dosing, n=8 (Sham 3.8 ± 0.4; OVX 4.6 ± 0.7)) worked out at 4.0 ± 0.4 mmol/1.

As for `CN(C)CCOc1ccc(/C(=C(\CCCl)c2ccccc2)c2ccc(F)cc2)cc1` [No. 2, (Z)-(2-{4-[4-Chloro-1-(4-fluorophenyl)-2-phenylbut-1-enyl]phenoxy}ethyl)-dimethylamine], in the series with MCF-7 cells, the inhibition at 1 µM is 29% and the Emax is 100%. Besides, the cytotoxicity at 10 µM in the series with MCF-7 cells (setting [2]) turned out to be 100%. For the same molecule, in the series with MCF-7 cells (setting [3]), the cytotoxicity at 10 µM came to 32%.
